Columns and labels:
arrhythmia incidence = details: CAST, cited from earlier work; for mortality in the drug treatment groups: fold greater
plasma citrulline = test: Plasma citrulline levels in human Crohn's Disease patients treated with Teduglutide (randomized, double-blind, placebo-controlled clinical study); assay type: in vivo; details: for Baseline plasma citrulline levels, mean: baseline (Dosing Day 1), subjects with moderately active CD; for 2-week plasma citrulline levels, mean: week 2; for 2-week plasma citrulline levels, mean / 4-week plasma citrulline levels, mean / 8-week plasma citrulline levels, mean: subcutaneous injection daily, CD subjects; for 4-week plasma citrulline levels, mean: week 4; for 8-week plasma citrulline levels, mean: week 8
Procedure: In a further experiment plasma citrulline levels in human patients treated with Teduglutide for the treatment of Crohn's Disease (CD) were determined. Subjects with moderately active CD were treated in a randomized, double-blind, placebo-controlled clinical study to assess the activity of 3 different doses of Teduglutide compared to placebo. The primary objective of the study was to assess the efficacy and the secondary objectives were to assess the safety and tolerability of the different doses of Teduglutide as compared to placebo. Following a screening visit to evaluate whether subjects met the inclusion/exclusion criteria, the study ran over a period of up to 12 weeks, including visits at baseline/Dosing Day 1, Weeks 2, 4, and 8, and one at the end of the follow-up period at Week 12. Teduglutide doses administered by subcutaneous injection were 0.05, 0.10 and 0.20 mg/kg on a daily basis for 8 weeks. The primary efficacy variable used was the percentage of subjects with a response, defined as a 100-point or greater reduction in the subject's CDAI score at dosing Week 8 from their baseline score or a CDAI score less than 150 at Week 8.

bone mineral density = details: administration of fluoride, cited from earlier work

SMILES: O=C(NCC1CCCCN1)c1cc(OCC(F)(F)F)ccc1OCC(F)(F)F (stereo not shown) [flecainide]
- arrhythmia incidence (arrhythmia incidence): significant reduction
- mortality in the drug treatment groups (arrhythmia incidence): 3 fold

SMILES: COc1ccc(C(=O)Nc2ccccc2CCC2CCCCN2C)cc1 (stereo not shown) [encainide]
- arrhythmia incidence (arrhythmia incidence): significant reduction
- mortality in the drug treatment groups (arrhythmia incidence): 3 fold

SMILES: CC[C@H](C)[C@H](NC(=O)[C@H](Cc1ccccc1)NC(=O)[C@H](CC(=O)O)NC(=O)[C@H](CCCNC(=N)N)NC(=O)[C@H](C)NC(=O)[C@H](C)NC(=O)[C@H](CC(C)C)NC(=O)[C@H](CC(N)=O)NC(=O)[C@H](CC(=O)O)NC(=O)[C@H](CC(C)C)NC(=O)[C@@H](NC(=O)[C@@H](NC(=O)[C@H](CC(N)=O)NC(=O)[C@H](CCSC)NC(=O)[C@H](CCC(=O)O)NC(=O)[C@H](CC(=O)O)NC(=O)[C@H](CO)NC(=O)[C@H](Cc1ccccc1)NC(=O)[C@H](CO)NC(=O)CNC(=O)[C@H](CC(=O)O)NC(=O)CNC(=O)[C@@H](N)Cc1c[nH]cn1)[C@@H](C)O)[C@@H](C)CC)C(=O)N[C@@H](CC(N)=O)C(=O)N[C@@H](Cc1c[nH]c2ccccc12)C(=O)N[C@@H](CC(C)C)C(=O)N[C@H](C(=O)N[C@@H](CCC(N)=O)C(=O)N[C@H](C(=O)N[C@@H](CCCCN)C(=O)N[C@H](C(=O)N[C@H](C(=O)N[C@@H](CC(=O)O)C(=O)O)[C@@H](C)O)[C@@H](C)CC)[C@@H](C)O)[C@@H](C)CC [Teduglutide]
- Baseline plasma citrulline levels, mean (plasma citrulline; 0.05 mg group): 21.6 µmol/L
- Baseline plasma citrulline levels, mean (plasma citrulline; 0.10 mg group): 24.7 µmol/L
- Baseline plasma citrulline levels, mean (plasma citrulline; 0.20 mg group): 24.5 µmol/L
- mean citrulline level, change (plasma citrulline; from baseline to week 8, teduglutide-treated groups, placebo group remains the same): increases
- 2-week plasma citrulline levels, mean (plasma citrulline; 0.05 mg group): 30.3 µmol/L
- 2-week plasma citrulline levels, mean (plasma citrulline; 0.10 mg group): 36.9 µmol/L
- 2-week plasma citrulline levels, mean (plasma citrulline; 0.20 mg group): 32.7 µmol/L
- 4-week plasma citrulline levels, mean (plasma citrulline; 0.05 mg group): 34.5 µmol/L
- 4-week plasma citrulline levels, mean (plasma citrulline; 0.10 mg group): 49.1 µmol/L
- 4-week plasma citrulline levels, mean (plasma citrulline; 0.20 mg group): 38.8 µmol/L
- 8-week plasma citrulline levels, mean (plasma citrulline; 0.05 mg group): 37.9 µmol/L
- 8-week plasma citrulline levels, mean (plasma citrulline; 0.10 mg group): 46.0 µmol/L
- 8-week plasma citrulline levels, mean (plasma citrulline; 0.20 mg group): 41.8 µmol/L

SMILES: F [fluoride]
- fracture risk (bone mineral density; also weaker bone strength): increased fracture risk
- bone mineral density (bone mineral density): significant increases

Source: patent publication US20070184554A1, “Biomarker of improved intestinal function” (NPS ALLELIX CORP., priority 2005, published 2007)
